Legend:
[1] = system: Peritoneal elicited macrophages; test: Endotoxin test: Polymyxin B pre-treatment, IL-6 production by macrophages; format: cell-based; settings: Polymyxin B 20 μg/ml 30 min, then LPS 10 ηg/ml
Procedure: To test for LPS contamination, macrophages were pre-treated with Polymyxin B, followed by incubation with ACE. Peritoneal elicited macrophages were pre-incubated with media or LPS inhibitor Polymyxin B (Calbiochem) at 20 μg/ml for 30 min at 37° C. Cells were further incubated with LPS (10 ηg/ml) or ACE (3.4 mg/ml). […] Results are shown as levels of IL-6 production, which were measured using ELISA. Means and standard deviations of triplicate samples are shown. Data are representative of three separate experiments.

Adherent macrophages = test: Effect of MAPK inhibitors on IL-6 production by stimulated macrophages; format: cell-based, murine; settings: 25 μM inhibitor 30 min pre-incubation, then ACE 3.4 mg/mL 48 hours
Procedure: Adherent macrophages were pre-incubated with media, vehicle (0.06% DMSO; Sigma), 25 μM ERK inhibitor, (PD98059; Calbiochem), or 25 μM p38 inhibitor (SB203580; Calbiochem) for 30 min at 37° C. before being treated with test agent. The cells were further incubated for 48 hours with ACE (3.4 mg/mL) or Zymosan (0.01%). DMSO was used as a vehicle control. IL-6 production was assayed using ELISA.

Polymyxin B
reduction of LPS activity (IL-6 production) [1]: ~80%

C[S+]([O-])c1ccc(-c2nc(-c3ccncc3)c(-c3ccc(F)cc3)[nH]2)cc1 (stereo not drawn) [SB203580]
IL-6 production by ACE treated macrophages in presence of inhibitor (Adherent macrophages): marked decreases of IL-6 production

COc1cccc(-c2cc(=O)c3ccccc3o2)c1N [PD98059]
IL-6 production by ACE treated macrophages in presence of inhibitor (Adherent macrophages): marked decreases of IL-6 production

From patent US20100285053A1, “Immunosuppressive Extract Of Cordyceps Sinensis And Uses Thereof” (Dalhousie University, priority 2006, published 2010)
